Measured values reported in ChEMBL document CHEMBL1156794, “Synthesis and antimicrobial evaluation of amphiphilic neamine derivatives” (J Med Chem, 2010).
Values after ≈ are worked out from the molar mass of the structure shown.

Assays:
Pseudomonas aeruginosa [1] = experiment: Antibacterial activity against MexAB, MexCD, MexEF, MexXY, TriABC deleted Pseudomonas aeruginosa PA406 after 24 hrs by geometric microdilution method; assay type: functional
Pseudomonas aeruginosa [2] = experiment: Antibacterial activity against Pseudomonas aeruginosa ATCC 27853 after 24 hrs by geometric microdilution method; assay type: functional
Pseudomonas aeruginosa [3] = experiment: Antibacterial activity against MexCD expressing Pseudomonas aeruginosa PA01 after 24 hrs by geometric microdilution method; assay type: functional
Pseudomonas aeruginosa [4] = experiment: Antibacterial activity against AAC6'-2a expressing Pseudomonas aeruginosa F03 after 24 hrs by geometric microdilution method; assay type: functional
Pseudomonas aeruginosa [5] = experiment: Antibacterial activity against MexEF expressing Pseudomonas aeruginosa PA03 after 24 hrs by geometric microdilution method; assay type: functional
Escherichia coli [6] = experiment: Antibacterial activity against AAC6'-2b expressing Escherichia coli PAZ505H8101 after 24 hrs by geometric microdilution method; assay type: functional
Pseudomonas aeruginosa [7] = experiment: Antibacterial activity against MexXY expressing Pseudomonas aeruginosa PT629 after 24 hrs by geometric microdilution method; assay type: functional
Klebsiella pneumoniae = experiment: Antibacterial activity against Klebsiella pneumoniae ATCC 700603 after 24 hrs by geometric microdilution method; assay type: functional
Acinetobacter lwoffii [8] = experiment: Antibacterial activity against […] expressing Acinetobacter lwoffii AI.88-483 after 24 hrs by geometric microdilution method; assay type: functional
Pseudomonas aeruginosa [9] = experiment: Antibacterial activity against MexAB expressing Pseudomonas aeruginosa PA21 after 24 hrs by geometric microdilution method; assay type: functional
Escherichia coli [10] = experiment: Antibacterial activity against ANT2'-2a expressing Escherichia coli L58058.1 after 24 hrs by geometric microdilution method; assay type: functional
Pseudomonas aeruginosa [11] = experiment: Antibacterial activity against MexXY expressing Pseudomonas aeruginosa PA22 after 24 hrs by geometric microdilution method; assay type: functional
Pseudomonas aeruginosa [12] = experiment: Antibacterial activity against TriABC expressing MexAB, MexCD, MexEF, MexXY deleted Pseudomonas aeruginosa PA405 after 24 hrs by geometric microdilution method; assay type: functional
Pseudomonas aeruginosa [13] = experiment: Antibacterial activity against Pseudomonas aeruginosa PAO1 after 24 hrs by geometric microdilution method; assay type: functional
Staphylococcus aureus [14] = experiment: Antibacterial activity against aminoglycoside-6'-N-acetyltransferase/2''-O-phosphoryltransferase expressing Staphylococcus aureus after 24 hrs by geometric microdilution method; assay type: functional
Staphylococcus aureus [15] = experiment: Antibacterial activity against NorA pump expressing Staphylococcus aureus after 24 hrs by geometric microdilution method; assay type: functional
Staphylococcus aureus [16] = experiment: Antibacterial activity against MsrA pump expressing Staphylococcus aureus after 24 hrs by geometric microdilution method; assay type: functional
Staphylococcus aureus [17] = experiment: Antibacterial activity against aminoglycoside-3'-O-phosphoryltransferase expressing Staphylococcus aureus after 24 hrs by geometric microdilution method; assay type: functional
Staphylococcus aureus [18] = experiment: Antibacterial activity against aminoglycoside-4'-O-phosphoryltransferase expressing Staphylococcus aureus after 24 hrs by geometric microdilution method; assay type: functional
Staphylococcus aureus [19] = experiment: Antibacterial activity against Staphylococcus aureus ATCC 25923 after 24 hrs by geometric microdilution method; assay type: functional; conditions: ATCC 25923, 24 h
Staphylococcus aureus [20] = experiment: Antibacterial activity against methicillin-resistant Staphylococcus aureus ATCC 33592 clinical isolate after 24 hrs by geometric microdilution method; assay type: functional; conditions: ATCC 33592, 24 h
Acinetobacter lwoffii [21] = experiment: microbe, parasite or virus in culture; conditions: ATCC 17925, 24 h
Description: Antibacterial activity against Acinetobacter lwoffii ATCC 17925 after 24 hrs by geometric microdilution method

Staphylococcus aureus [22] = experiment: Antibacterial activity against vancomycin-resistant Staphylococcus aureus VRS-2 after 24 hrs by geometric microdilution method; assay type: functional; conditions: VRS-2, 24 h
Escherichia coli [23] = experiment: microbe, parasite or virus in culture; conditions: ATCC 25922, 24 h
Description: Antibacterial activity against Escherichia coli ATCC 25922 after 24 hrs by geometric microdilution method

Klebsiella aerogenes = experiment: Antibacterial activity against R-methylase expressing Enterobacter aerogenes 06AB008 after 24 hrs by geometric microdilution method; assay type: functional
Citrobacter amalonaticus = experiment: Antibacterial activity against R-methylase expressing Citrobacter amalonaticus 06AB0010 after 24 hrs by geometric microdilution method; assay type: functional
Escherichia coli [24] = experiment: Antibacterial activity against R-methylase expressing Escherichia coli 06AB003 after 24 hrs by geometric microdilution method; assay type: functional

NC[C@H]1O[C@H](O[C@H]2[C@H](OCc3ccc4ccccc4c3)[C@@H](OCc3ccc4ccccc4c3)[C@H](N)C[C@@H]2N)[C@H](N)[C@@H](OCc2ccc3ccccc3c2)[C@@H]1OCc1ccc2ccccc2c1 was tested, and the MIC (Pseudomonas aeruginosa [1]; PA406, 24 h) was 64 mg/L (≈ 72.5 µM), the MIC (Pseudomonas aeruginosa [2]; ATCC 27853, 24 h) was 64 mg/L (≈ 72.5 µM) and the MIC (Pseudomonas aeruginosa [3]; PA01, 24 h) was 64 mg/L (≈ 72.5 µM). For the same compound, the MIC (Pseudomonas aeruginosa [4]; F03, 24 h) was 64 mg/L (≈ 72.5 µM), the MIC (Pseudomonas aeruginosa [5]; PA03, 24 h) was 64 mg/L (≈ 72.5 µM) and the MIC (Escherichia coli [6]; PAZ505H8101, 24 h) was 64 mg/L (≈ 72.5 µM). For the same compound, the MIC (Pseudomonas aeruginosa [7]; PT629, 24 h) was 64 mg/L (≈ 72.5 µM), the MIC (Klebsiella pneumoniae; ATCC 700603, 24 h) was 128 mg/L (≈ 145 µM) and the MIC (Acinetobacter lwoffii [8]; AI.88-483, 24 h) was over 128 mg/L. The MIC (Pseudomonas aeruginosa [9]; PA21, 24 h) was 64 mg/L (≈ 72.5 µM), the MIC (Escherichia coli [10]; L58058.1, 24 h) was 64 mg/L (≈ 72.5 µM) and the MIC (Pseudomonas aeruginosa [11]; PA22, 24 h) was 64 mg/L (≈ 72.5 µM). For the same compound, the MIC (Pseudomonas aeruginosa [12]; PA405, 24 h) was 64 mg/L (≈ 72.5 µM) and the MIC (Pseudomonas aeruginosa [13]; PAO1, 24 h) was 64 mg/L (≈ 72.5 µM).
For NC[C@H]1O[C@H](O[C@H]2[C@H](O)[C@@H](OCc3ccccn3)[C@H](N)C[C@@H]2N)[C@H](N)[C@@H](OCc2ccccn2)[C@@H]1OCc1ccccn1, the MIC (Staphylococcus aureus [14]) was over 128 mg/L, the MIC (Staphylococcus aureus [15]) was over 128 mg/L and the MIC (Staphylococcus aureus [16]) was over 128 mg/L. The MIC (Staphylococcus aureus [17]) was over 128 mg/L, the MIC (Staphylococcus aureus [18]) was over 128 mg/L and the MIC (Staphylococcus aureus [19]) was over 128 mg/L.
With NC[C@H]1O[C@H](O[C@H]2[C@H](O)[C@@H](OCc3ccccn3)[C@H](N)C[C@@H]2N)[C@H](N)[C@@H](OCc2ccccn2)[C@@H]1O the MIC (Staphylococcus aureus [14]) was over 128 mg/L, the MIC (Staphylococcus aureus [15]) was over 128 mg/L and the MIC (Staphylococcus aureus [16]) was over 128 mg/L. It also gave an MIC (Staphylococcus aureus [17]) of over 128 mg/L, an MIC (Staphylococcus aureus [18]) of over 128 mg/L and an MIC (Staphylococcus aureus [19]) of over 128 mg/L.
Compound NC[C@H]1O[C@H](O[C@H]2[C@H](O)[C@@H](OCc3ccc4ccccc4n3)[C@H](N)C[C@@H]2N)[C@H](N)[C@@H](OCc2ccc3ccccc3n2)[C@@H]1O has an MIC (Staphylococcus aureus [14]) of over 128 mg/L, an MIC (Staphylococcus aureus [15]) of over 128 mg/L and an MIC (Staphylococcus aureus [16]) of over 128 mg/L. For the same compound, the MIC (Staphylococcus aureus [17]) was over 128 mg/L, the MIC (Staphylococcus aureus [18]) was over 128 mg/L and the MIC (Staphylococcus aureus [19]) was over 128 mg/L.
NC[C@H]1O[C@H](O[C@H]2[C@H](O)[C@@H](O)[C@H](N)C[C@@H]2N)[C@H](N)[C@@H](OCc2ccc3ccccc3c2)[C@@H]1OCc1ccc2ccccc2c1 showed an MIC (Staphylococcus aureus [14]) of 8 mg/L (≈ 13.3 µM), an MIC (Staphylococcus aureus [20]) of 8 mg/L (≈ 13.3 µM) and an MIC (Pseudomonas aeruginosa [1]; PA406, 24 h) of 8 mg/L (≈ 13.3 µM). The MIC (Pseudomonas aeruginosa [2]; ATCC 27853, 24 h) was 32 mg/L (≈ 53.1 µM), the MIC (Staphylococcus aureus [15]) was 8 mg/L (≈ 13.3 µM) and the MIC (Acinetobacter lwoffii [21]) was 8 mg/L (≈ 13.3 µM). It also gave an MIC (Pseudomonas aeruginosa [3]; PA01, 24 h) of 16 mg/L (≈ 26.5 µM), an MIC (Staphylococcus aureus [16]) of 8 mg/L (≈ 13.3 µM) and an MIC (Staphylococcus aureus [22]) of 4 mg/L (≈ 6.64 µM). For the same compound, the MIC (Pseudomonas aeruginosa [4]; F03, 24 h) was over 128 mg/L, the MIC (Staphylococcus aureus [17]) was 4 mg/L (≈ 6.64 µM) and the MIC (Staphylococcus aureus [18]) was 8 mg/L (≈ 13.3 µM). It also gave an MIC (Pseudomonas aeruginosa [5]; PA03, 24 h) of 8 mg/L (≈ 13.3 µM), an MIC (Escherichia coli [6]; PAZ505H8101, 24 h) of 16 mg/L (≈ 26.5 µM) and an MIC (Pseudomonas aeruginosa [7]; PT629, 24 h) of over 128 mg/L. For the same compound, the MIC (Klebsiella pneumoniae; ATCC 700603, 24 h) was over 128 mg/L, the MIC (Escherichia coli [23]) was 32 mg/L (≈ 53.1 µM) and the MIC (Acinetobacter lwoffii [8]; AI.88-483, 24 h) was over 128 mg/L. It also gave an MIC (Pseudomonas aeruginosa [9]; PA21, 24 h) of 64 mg/L (≈ 106 µM), an MIC (Escherichia coli [10]; L58058.1, 24 h) of 16 mg/L (≈ 26.5 µM) and an MIC (Pseudomonas aeruginosa [11]; PA22, 24 h) of over 128 mg/L. The MIC (Staphylococcus aureus [19]) was 4 mg/L (≈ 6.64 µM), the MIC (Pseudomonas aeruginosa [12]; PA405, 24 h) was 8 mg/L (≈ 13.3 µM) and the MIC (Pseudomonas aeruginosa [13]; PAO1, 24 h) was 64 mg/L (≈ 106 µM).
GENTAMICIN showed an MIC (Pseudomonas aeruginosa [1]) of under 0.125 mg/L, an MIC (Pseudomonas aeruginosa [2]) of 1 mg/L and an MIC (Pseudomonas aeruginosa [3]) of 1 mg/L. The MIC (Klebsiella aerogenes) was over 128 mg/L, the MIC (Pseudomonas aeruginosa [4]) was over 28 mg/L and the MIC (Pseudomonas aeruginosa [5]) was 1 mg/L. The MIC (Escherichia coli [6]) was 1 mg/L, the MIC (Citrobacter amalonaticus) was over 128 mg/L and the MIC (Pseudomonas aeruginosa [7]) was 4 mg/L. The MIC (Klebsiella pneumoniae) was 8 mg/L, the MIC (Acinetobacter lwoffii [8]) was 4 mg/L and the MIC (Pseudomonas aeruginosa [9]) was 1 mg/L. For the same compound, the MIC (Escherichia coli [10]) was 64 mg/L, the MIC (Escherichia coli [24]) was over 128 mg/L and the MIC (Pseudomonas aeruginosa [11]) was 4 mg/L. The MIC (Pseudomonas aeruginosa [12]) was under 0.125 mg/L and the MIC (Pseudomonas aeruginosa [13]) was 2 mg/L.
NC[C@H]1O[C@H](O[C@H]2[C@H](O)[C@@H](OCc3ccccc3)[C@H](N)C[C@@H]2N)[C@H](N)[C@@H](OCc2ccccc2)[C@@H]1OCc1ccccc1 gave an MIC (Staphylococcus aureus [14]) of over 128 mg/L, an MIC (Staphylococcus aureus [20]) of over 128 mg/L and an MIC (Pseudomonas aeruginosa [1]; PA406, 24 h) of 64 mg/L (≈ 108 µM). It also gave an MIC (Pseudomonas aeruginosa [2]; ATCC 27853, 24 h) of over 128 mg/L, an MIC (Staphylococcus aureus [15]) of over 128 mg/L and an MIC (Acinetobacter lwoffii [21]) of 128 mg/L (≈ 216 µM). For the same compound, the MIC (Pseudomonas aeruginosa [3]; PA01, 24 h) was over 128 mg/L, the MIC (Staphylococcus aureus [16]) was over 128 mg/L and the MIC (Staphylococcus aureus [22]) was 64 mg/L (≈ 108 µM). It also gave an MIC (Pseudomonas aeruginosa [4]; F03, 24 h) of over 128 mg/L, an MIC (Staphylococcus aureus [17]) of over 128 mg/L and an MIC (Staphylococcus aureus [18]) of over 128 mg/L. It also gave an MIC (Pseudomonas aeruginosa [5]; PA03, 24 h) of over 128 mg/L, an MIC (Escherichia coli [6]; PAZ505H8101, 24 h) of over 128 mg/L and an MIC (Pseudomonas aeruginosa [7]; PT629, 24 h) of over 128 mg/L. The MIC (Klebsiella pneumoniae; ATCC 700603, 24 h) was over 128 mg/L, the MIC (Escherichia coli [23]) was over 128 mg/L and the MIC (Acinetobacter lwoffii [8]; AI.88-483, 24 h) was over 128 mg/L. For the same compound, the MIC (Pseudomonas aeruginosa [9]; PA21, 24 h) was over 128 mg/L, the MIC (Escherichia coli [10]; L58058.1, 24 h) was over 128 mg/L and the MIC (Pseudomonas aeruginosa [11]; PA22, 24 h) was over 128 mg/L. For the same compound, the MIC (Staphylococcus aureus [19]) was over 128 mg/L, the MIC (Pseudomonas aeruginosa [12]; PA405, 24 h) was 64 mg/L (≈ 108 µM) and the MIC (Pseudomonas aeruginosa [13]; PAO1, 24 h) was over 128 mg/L.
For NC[C@H]1O[C@H](O[C@H]2[C@H](O)[C@@H](OCc3ccccc3)[C@H](N)C[C@@H]2N)[C@H](N)[C@@H](OCc2ccccc2)[C@@H]1O, the MIC (Staphylococcus aureus [14]) was over 128 mg/L, the MIC (Staphylococcus aureus [15]) was over 128 mg/L and the MIC (Staphylococcus aureus [16]) was over 128 mg/L. For the same compound, the MIC (Staphylococcus aureus [17]) was over 128 mg/L, the MIC (Staphylococcus aureus [18]) was over 128 mg/L and the MIC (Staphylococcus aureus [19]) was over 128 mg/L.
